# Reference: PubChem BioAssay (NCI)
#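 How tested: cells in 96-well plates exposed to compound for 48 hours at five concentrations. At the TGI there is no net growth.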
# System: P388/ADR leukemia
# Assay: NCI tumour cell line growth inhibition, 48 h
smiles,measurement,value
O=S(=O)(O)O,TGI,> 3000 µM
